This is an account of results in patent publication US20070191291A1, “Compound antibacterial drugs comprising n-acetyl-d-glucosamine” (priority 2003, published 2007).

Like-named read-outs stand apart in the source and are kept apart here.

Test [1] deals with Bacillus cereus. Put plainly: Test Example 2: preventing formation of bacterial CGC in vitro (K-B method). Format: cell-based. As to the method: (§1) E. coli (No. 33310, purchased from Chengdu Institute of Biological Products, the Ministry of Public Health) was used in the tests. Grid design was performed by using antibiotic with different concentrations and N-acetyl-D-glucosamine having an amount of from 10 mg to 300 mg. Streak plates were conducted separately, and K-B method was employed for drugs. Colonies at marginal part of drug inhibition zone were picked and were observed under microscope. If cell length was more than 50 μm and cell number was more than 5 in each visual field, it was deemed as CGC positive and was marked with “+”; while if cell length was not greater than 50 μm and cell number was within the range from 0 to 4 in each visual field, it was deemed as CGC negative and was marked with “−”. At this time, the ratio of two substances was called “effective ratio”.
(§2) Effects tests of compound preparation comprising N-acetyl-D-glucosamine and antibiotics for preventing the formation of bacterial CGC in vitro.
(§3) The tests were carried out in vitro, wherein gram-negative amphimicrodes, gram-negative anaerobes and gram-positive aerobes were separately coated on streak plates, test drugs and control drugs were separately dissolved with same volume of sterile water for injection, 10 μl of each drug was used for preparing drug-sensitive paper, K-B method was employed in the tests of drugs, and the inhibition situations of CGC formation were observed.

For test [2], the system named is Bacillus proteus. Described as above. Format: cell-based. How it is done: as §1, §2, §3
Test [3] concerns Bacteroides fragilis. The test is described as above. It is filed as cell-based. As to the method: as §1, §2, §3
The subject of test [4] is Citro Bacter. The test is described as above. It is filed as cell-based. How it is done: as §1, §2, §3
The subject of test [5] is Diphtheroid bacillus. Described as above. Format: cell-based. How it is done:
as §1, §2, §3

Test [6] has as its system E. coli. The test is described as above. It is filed as cell-based. How it is done: as §1, §2, §3
Test [7] relates to Klebsiella. Described as above. Format: cell-based. How it is done: as §1, §2, §3
The subject of test [8] is Listeria. The description is as above. It is filed as cell-based. As to the method:
as §1, §2, §3

Test [9] relates to Nucleic Acid Bacter. The description is as above. Format: cell-based. As to the method:
as §1, §2, §3

In test [10] the test system is rats infected and not infected by Bacillus typhi murium. Format: in vivo, Wistar rats. The settings on record: rats infected or not by Bacillus typhi murium, consecutive week, 15 rats per group.
Test [11] relates to irritable bowel syndrome (IBS) caused by bacterial CGC. Put plainly: Test Example 5: preventing irritable bowel syndrome (IBS) caused by bacterial CGC. Format: in vivo, rats. The settings on record: for CGCs in the rat stools after one week of drug withdrawal / CGCs in the stools of the rats: rats, effective dosage for consecutive 10 days, 30 rats per group; for CGCs in the stools of the rats: stools observed during administration and within 1 week after drug withdrawal. The source says:
On this basis, the rats were subjected to stimulations such as electric stimulation, intragastric administration with fructus zanthoxyli water, cold, constraint etc. in order to induce IBS, and the incidence rates of IBS of two groups were observed.

The mark [12] stands for this setting: compound preparation N-acetyl-D-glucosamine (50 mg) and tetracycline (150 mg), control tetracycline (150 mg).
Where [13] appears, read: first of three values given respectively: electric stimulation.
The mark [14] stands for this setting: second of three values given respectively: intragastric administration with fructus zanthoxyli water.
Where [15] appears, read: third of three values given respectively: cold, constraint etc.
The mark [16] stands for this setting: compound preparation 100 mg N-acetyl-D-glucosamine + 900 mg spiramycin, control 900 mg spiramycin.
Setting [17] is: compound preparation 100 mg N-acetyl-D-glucosamine + 1500 mg ampicillin-sulbactam, control drug was ampicillin-sulbactam.

As to `CN(C)C1C(O)=C(C(N)=O)C(=O)C2(O)C(O)=C3C(=O)c4c(O)cccc4C(C)(O)C3CC12` (stereo not drawn) [Tetracyclin, tetracycline], the CGC formation result was “+ (If cell length was more than 50 μm and cell number was more than 5 in each visual field, it was deemed as CGC positive and was marked with “+”)” in test [1] (setting [12]); “+ (If cell length was more than 50 μm and cell number was more than 5 in each visual field, it was deemed as CGC positive and was marked with “+”)” in [2] (setting [12]); “+ (If cell length was more than 50 μm and cell number was more than 5 in each visual field, it was deemed as CGC positive and was marked with “+”)” in test [3] (setting [12]); “+ (If cell length was more than 50 μm and cell number was more than 5 in each visual field, it was deemed as CGC positive and was marked with “+”)” in [4] (setting [12]); “+ (If cell length was more than 50 μm and cell number was more than 5 in each visual field, it was deemed as CGC positive and was marked with “+”)” in [5] (setting [12]); “+ (If cell length was more than 50 μm and cell number was more than 5 in each visual field, it was deemed as CGC positive and was marked with “+”)” in test [6] (setting [12]). Besides, the CGC formation result was “+ (If cell length was more than 50 μm and cell number was more than 5 in each visual field, it was deemed as CGC positive and was marked with “+”)” in test [7] (setting [12]); “+ (If cell length was more than 50 μm and cell number was more than 5 in each visual field, it was deemed as CGC positive and was marked with “+”)” in test [8] (setting [12]); “+ (If cell length was more than 50 μm and cell number was more than 5 in each visual field, it was deemed as CGC positive and was marked with “+”)” in test [9] (setting [12]). The “positive rates of stool CGC and intestinal mucosa CGC” value in [10] (N-acetyl-D-glucosamine (150 mg)+tetracycline (150 mg) vs only tetracycline) turned out to be 100%. For the same compound, the “incidence rate of IBS” value in test [11] (setting [13]), in test [11] (setting [14]) and in test [11] (setting [15]) was 33% each time. Also, the “CGCs in the rat stools after one week of drug withdrawal” value in test [11] is “still present”. In addition, the “CGCs in the stools of the rats” value in [11] is on record as “a large amount of CGCs appeared”.

Take spiramycin: the CGC formation entry was “+ (If cell length was more than 50 μm and cell number was more than 5 in each visual field, it was deemed as CGC positive and was marked with “+”)” in [1] (setting [16]); “+ (If cell length was more than 50 μm and cell number was more than 5 in each visual field, it was deemed as CGC positive and was marked with “+”)” in test [1] (setting [17]); “+ (If cell length was more than 50 μm and cell number was more than 5 in each visual field, it was deemed as CGC positive and was marked with “+”)” in test [2] (setting [16]); “+ (If cell length was more than 50 μm and cell number was more than 5 in each visual field, it was deemed as CGC positive and was marked with “+”)” in test [2] (setting [17]); “+ (If cell length was more than 50 μm and cell number was more than 5 in each visual field, it was deemed as CGC positive and was marked with “+”)” in test [3] (setting [16]); “+ (If cell length was more than 50 μm and cell number was more than 5 in each visual field, it was deemed as CGC positive and was marked with “+”)” in test [3] (setting [17]). In addition, the CGC formation entry in test [4] (setting [16]) was “+ (If cell length was more than 50 μm and cell number was more than 5 in each visual field, it was deemed as CGC positive and was marked with “+”)”; in test [4] (setting [17]), “+ (If cell length was more than 50 μm and cell number was more than 5 in each visual field, it was deemed as CGC positive and was marked with “+”)”; in test [5] (setting [16]) it was “+ (If cell length was more than 50 μm and cell number was more than 5 in each visual field, it was deemed as CGC positive and was marked with “+”)”; in test [5] (setting [17]), “+ (If cell length was more than 50 μm and cell number was more than 5 in each visual field, it was deemed as CGC positive and was marked with “+”)”; in test [6] (setting [16]), “+ (If cell length was more than 50 μm and cell number was more than 5 in each visual field, it was deemed as CGC positive and was marked with “+”)”; in [6] (setting [17]), “+ (If cell length was more than 50 μm and cell number was more than 5 in each visual field, it was deemed as CGC positive and was marked with “+”)”. Also, the CGC formation entry was “+ (If cell length was more than 50 μm and cell number was more than 5 in each visual field, it was deemed as CGC positive and was marked with “+”)” in [7] (setting [16]); “+ (If cell length was more than 50 μm and cell number was more than 5 in each visual field, it was deemed as CGC positive and was marked with “+”)” in [7] (setting [17]); “+ (If cell length was more than 50 μm and cell number was more than 5 in each visual field, it was deemed as CGC positive and was marked with “+”)” in [8] (setting [16]); “+ (If cell length was more than 50 μm and cell number was more than 5 in each visual field, it was deemed as CGC positive and was marked with “+”)” in test [8] (setting [17]); “+ (If cell length was more than 50 μm and cell number was more than 5 in each visual field, it was deemed as CGC positive and was marked with “+”)” in [9] (setting [16]); “+ (If cell length was more than 50 μm and cell number was more than 5 in each visual field, it was deemed as CGC positive and was marked with “+”)” in [9] (setting [17]). The “positive rates of stool CGC and intestinal mucosa CGC” value in test [10] (N-acetyl-D-glucosamine (100 mg)+spiramycin (900 mg) vs only spiramycin) was 100%. Also, the “incidence rate of IBS” value in test [11] (setting [13]), in [11] (setting [14]) and in test [11] (setting [15]) was 33% in each case. Also, the “CGCs in the rat stools after one week of drug withdrawal” value in [11] is listed as “still present”. The “CGCs in the stools of the rats” value in test [11] is reported as “a large amount of CGCs appeared”.
